Experimental data as given in ChEMBL document CHEMBL1201862, “PubChem BioAssay data set” (2004).
Several values for one entry are separate records, joined by “and”; a condition that tells them apart may be missing. Equal entries are not always repeated.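 The compound was tested at five concentrations on cells cultured in 96-well plates, with a 48-hour exposure period. GI50: concentration for 50% inhibition of growth.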 Activity calls are given as the source filed them. Rule as the data show it: active = GI50 up to about 1.1 µM and inactive = higher.

What was measured:
Assay in all cases: NCI-60 cell line screen, 48 h
U-251 = tested on: U-251
A498 = tested on: A498
NCI-H23 = tested on: NCI-H23
HOP-92 = tested on: HOP-92
OVCAR-4 = tested on: OVCAR-4
MDA-MB-435 = tested on: MDA-MB-435
KM12 = tested on: KM12
OVCAR-8 = tested on: OVCAR-8
EKVX = tested on: EKVX
MCF7 = tested on: MCF7
TK-10 = tested on: TK-10
MOLT-4 = tested on: MOLT-4
HT-29 = tested on: HT-29
MDA-MB-231 = tested on: MDA-MB-231
SK-MEL-2 = tested on: SK-MEL-2
786-0 = tested on: 786-0
CAKI-1 = tested on: CAKI-1
M14 = tested on: M14
SF-268 = tested on: SF-268
NCI-H226 = tested on: NCI-H226

Row | SMILES | GI50 (U-251) | GI50 (A498) | GI50 (NCI-H23) | GI50 (HOP-92) | GI50 (OVCAR-4) | GI50 (MDA-MB-435) | GI50 (KM12) | GI50 (OVCAR-8) | GI50 (EKVX) | GI50 (MCF7) | GI50 (TK-10) | GI50 (MOLT-4) | GI50 (HT-29) | GI50 (MDA-MB-231) | GI50 (SK-MEL-2) | GI50 (786-0) | GI50 (CAKI-1) | GI50 (M14) | GI50 (SF-268) | GI50 (NCI-H226)
1 | Cc1cc(C)c(O)c(Cc2cccc(Cc3cc(C)cc(C)c3O)c2O)c1 | > 100 µM (inactive) | > 100 µM (inactive) | > 100 µM (inactive) | > 100 µM (inactive) | > 100 µM (inactive) | > 100 µM (inactive) | > 100 µM (inactive) | > 100 µM (inactive) | > 100 µM (inactive) | > 100 µM (inactive) | > 100 µM (inactive) | > 100 µM (inactive) | > 100 µM (inactive) | > 100 µM (inactive) | > 100 µM (inactive) | > 100 µM (inactive) | > 100 µM (inactive) | > 100 µM (inactive) | > 100 µM (inactive) | –
2 | Cc1ccc(-c2cs/c(=N\c3ccccc3)n2NC(=O)c2ccncc2)cc1 | 19.1 µM (inactive) | > 75.2 µM (inactive) | 31.3 µM (inactive) | 88.5 µM (inactive) | 36.9 µM (inactive) | 29.4 µM (inactive) | 31.4 µM (inactive) | 25.8 µM (inactive) | 37.3 µM (inactive) | 33.3 µM (inactive) | > 54.7 µM (inactive) | 26.4 µM (inactive) | 21 µM (inactive) | 51.5 µM (inactive) | 28.5 µM (inactive) | 48 µM (inactive) | 26.4 µM (inactive) | 33 µM (inactive) | 42.1 µM (inactive) | 28.4 µM (inactive)
3 | CCOc1ccccc1-c1nc2c(s1)C(=O)c1ccccc1C2=O | 14.6 µM (inactive) | 15.9 µM (inactive) | 10.5 µM (inactive) | 12 µM (inactive) | 9.68 µM (inactive) | 2.15 µM (inactive) | 15.4 µM (inactive) | – | 17.2 µM (inactive) | 12.2 µM (inactive) | 19.3 µM (inactive) | 3.53 µM (inactive) | – | 2.84 µM (inactive) | 15.7 µM (inactive) | 16.9 µM (inactive) | 12.2 µM (inactive) | 15.7 µM (inactive) | 12.6 µM (inactive) | –
4 | CCOC(=O)c1nc2cc(C(F)(F)F)ccc2nc1Nc1ccc(F)cc1 | 24.5 µM (inactive) | 28.6 µM (inactive) | 74.1 µM (inactive) | 10.8 µM (inactive) | 23.6 µM (inactive) | > 100 µM (inactive) | > 100 µM (inactive) | 39 µM (inactive) | 68.2 µM (inactive) | 85.5 µM (inactive) | 73.5 µM (inactive) | > 10 µM (inactive) | 97.9 µM (inactive) | > 100 µM (inactive) | > 100 µM (inactive) | > 100 µM (inactive) | > 100 µM (inactive) | 49.4 µM (inactive) | > 100 µM (inactive) | 41.1 µM (inactive)
5 | CSc1nc2c(c(=O)[nH]1)N=C(c1ccccc1)CC(c1ccccc1)N2 (centres undefined) | 34 µM (inactive) | 83.4 µM (inactive) | 31.3 µM (inactive) | 41.5 µM (inactive) | 30.3 µM (inactive) | 40.7 µM (inactive) | 14.1 µM (inactive) | 28 µM (inactive) | 32.1 µM (inactive) | 12.3 µM (inactive) | – | 18.9 µM (inactive) | 30.4 µM (inactive) | 18.5 µM (inactive) | 27.8 µM (inactive) | 38.5 µM (inactive) | 32.1 µM (inactive) | 32.2 µM (inactive) | – | 39.7 µM (inactive)
6 | O=c1[nH]nc(Cc2ccccc2)n1O | > 100 µM (inactive) | > 100 µM (inactive) | > 100 µM (inactive) | > 100 µM (inactive) | > 100 µM (inactive) | > 100 µM (inactive) | > 100 µM (inactive) | > 100 µM (inactive) | > 100 µM (inactive) | > 100 µM (inactive) | > 100 µM (inactive) | > 100 µM (inactive) | > 100 µM (inactive) | > 100 µM (inactive) | > 10 µM (inactive) | > 100 µM (inactive) | > 100 µM (inactive) | – | > 100 µM (inactive) | > 100 µM (inactive)
7 | Cc1nn(C(=O)c2ccncc2)c2c1C(c1ccccc1O)SC(=N)N2 (centres undefined) | > 10 µM (inactive) | – | > 10 µM (inactive) | > 10 µM (inactive) | > 10 µM (inactive) | > 10 µM (inactive) | > 10 µM (inactive) | > 10 µM (inactive) | > 10 µM (inactive) | > 10 µM (inactive) | > 10 µM (inactive) | > 10 µM (inactive) | > 10 µM (inactive) | > 10 µM (inactive) | > 10 µM (inactive) | > 10 µM (inactive) | > 10 µM (inactive) | > 10 µM (inactive) | > 10 µM (inactive) | > 10 µM (inactive)
8 | O=C(Nc1ccc(Cl)cc1)c1cc(S(=O)(=O)Nc2n[nH]c(=O)[nH]2)c(SSc2cc(Cl)c(C(=O)Nc3ccc(Cl)cc3)cc2S(=O)(=O)Nc2n[nH]c(=O)[nH]2)cc1Cl | > 100 µM (inactive) | > 100 µM (inactive) | > 100 µM (inactive) | > 100 µM (inactive) | > 100 µM (inactive) | > 100 µM (inactive) | > 100 µM (inactive) | > 100 µM (inactive) | > 100 µM (inactive) | > 100 µM (inactive) | > 100 µM (inactive) | > 100 µM (inactive) | > 100 µM (inactive) | > 100 µM (inactive) | > 100 µM (inactive) | > 100 µM (inactive) | > 100 µM (inactive) | > 100 µM (inactive) | > 100 µM (inactive) | > 100 µM (inactive)
9 | O=C1/C(=C/c2ccco2)NC(=S)N1CN1CCCCC1 | > 100 µM (inactive) | > 100 µM (inactive) | > 100 µM (inactive) | > 100 µM (inactive) | 13.3 µM (inactive) | > 100 µM (inactive) | > 100 µM (inactive) | 43.7 µM (inactive) | 98.4 µM (inactive) | 36.3 µM (inactive) | > 100 µM (inactive) | > 100 µM (inactive) | 25.8 µM (inactive) | > 100 µM (inactive) | > 100 µM (inactive) | 70.1 µM (inactive) | – | 99.3 µM (inactive) | 68.4 µM (inactive) | 54.1 µM (inactive)
10 | CCOc1ccc2nc3cc(/N=N/c4ccc(N)nc4N)ccc3c(N)c2c1 | 0.578 µM (active) | 8.89 µM (inactive) | 3.94 µM (inactive) | 9.06 µM (inactive) | 6.92 µM (inactive) | 3.03 µM (inactive) | 3.37 µM (inactive) | 2.73 µM (inactive) | 7.96 µM (inactive) | 3.15 µM (inactive) | 13.9 µM (inactive) | 1.46 µM (inactive) | 3.5 µM (inactive) | 1.54 µM (inactive) | 2.1 µM (inactive) | 1.46 µM (inactive) | 36.4 µM (inactive) | 20 µM (inactive) | 1.64 µM (inactive) | 21.7 µM (inactive)
11 | COC(=O)[C@@H]1CC(C(C[N+](=O)[O-])c2ccc(O[Si](C)(C)C(C)(C)C)cc2)C(=O)N1C(=O)OC(C)(C)C (some centres undefined) | > 100 µM (inactive) and 78 µM (inactive) | > 100 µM (inactive) | – | 40.1 µM (inactive) and 61 µM (inactive) | 53.6 µM (inactive) and 29.6 µM (inactive) | > 100 µM (inactive) and 73.5 µM (inactive) | > 100 µM (inactive) and 76.6 µM (inactive) | > 100 µM (inactive) | > 100 µM (inactive) and 61.5 µM (inactive) | 45.5 µM (inactive) and 29.6 µM (inactive) | > 100 µM (inactive) | – | – | > 100 µM (inactive) | > 100 µM (inactive) | > 100 µM (inactive) | > 100 µM (inactive) and 90.4 µM (inactive) | 52.5 µM (inactive) | > 100 µM (inactive) and 95.3 µM (inactive) | –
12 | O=[N+]([O-])c1cnc(N(CCO)CCO)s1 | > 100 µM (inactive) | > 100 µM (inactive) | > 100 µM (inactive) | > 100 µM (inactive) | > 100 µM (inactive) | > 100 µM (inactive) | > 100 µM (inactive) | > 100 µM (inactive) | > 100 µM (inactive) | > 100 µM (inactive) | – | > 100 µM (inactive) | > 100 µM (inactive) | > 100 µM (inactive) | > 100 µM (inactive) | > 100 µM (inactive) | > 100 µM (inactive) | > 100 µM (inactive) | > 100 µM (inactive) | > 100 µM (inactive)
13 | COc1ccc(CC(C#N)c2cc(OC)c(OC)c(OC)c2)cc1 (centres undefined) | 0.0568 µM (active) | 0.179 µM (active) | 0.109 µM (active) | 0.366 µM (active) | 7.29 µM (inactive) | < 0.01 µM (active) | 0.0194 µM (active) | 0.135 µM (active) | 1.56 µM (inactive) | < 0.016 µM (active) | – | 0.121 µM (active) | 0.029 µM (active) | 0.0561 µM (active) | 0.0775 µM (active) | 0.125 µM (active) | 0.0455 µM (active) | 0.0472 µM (active) | 0.204 µM (active) | 0.773 µM (active)
14 | CN(C)Cc1cc(C(=O)/C=C/c2ccc(Cl)cc2Cl)cc(CN(C)C)c1O | 3.52 µM (inactive) | 2.4 µM (inactive) | 6.9 µM (inactive) | 3.94 µM (inactive) | 2.22 µM (inactive) | 4.06 µM (inactive) | 1.47 µM (inactive) | 2.33 µM (inactive) | 6.18 µM (inactive) | 2.33 µM (inactive) | 11.5 µM (inactive) | 1.88 µM (inactive) | 2.07 µM (inactive) | 2.11 µM (inactive) | – | 3.77 µM (inactive) | 2.36 µM (inactive) | 2.75 µM (inactive) | 3.88 µM (inactive) | 8.57 µM (inactive)
